Assay results as given in publication PMC3520070 (Journal of medicinal chemistry, 2011).
Entries after “also recorded” stand apart in the source; their conditions may differ.

Assays:
[1] = Pharmacokinetics in non-human primates; type: in vivo, cynomolgus monkeys; conditions: cynomolgus monkey, plasma, po, 5 mg/kg
XIAP BIR3 protein [2] = target: T1, XIAP BIR3 protein (Homo sapiens, UniProt P98170); assay: Competitive fluorescence-polarization binding assay, XIAP BIR3; conditions: XIAP BIR3, cIAP1 BIR3 and cIAP2 BIR3
T1 sequence (P98170 241-356): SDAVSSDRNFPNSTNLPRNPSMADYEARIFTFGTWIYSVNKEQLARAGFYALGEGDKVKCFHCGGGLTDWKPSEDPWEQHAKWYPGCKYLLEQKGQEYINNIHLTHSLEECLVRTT

[3] = test system: MDA-MB-231 xenograft tumors; assay: In vivo antitumor efficacy, MDA-MB-231 xenograft model
[4] = test system: normal-like human breast epithelial MCF-12F cells; assay: Trypan blue cell death assay, MCF-12F; type: cell-based; conditions: concentrations as high as 10 μM, 48 hours
[5] = test system: cIAP1, procaspase-8 and PARP in MDA-MB-231 xenograft tissues; assay: In vivo pharmacodynamics in MDA-MB-231 xenograft tissues; parameters: species or system SCID mice
[6] = test system: more than 100 human cancer cell lines; assay: Screening against more than 100 human cancer cell lines; type: cell-based
Metabolic stability = type: in vitro ADME; conditions: IND-enabling studies, data not shown
cIAP1 = cIAP1 (Homo sapiens, UniProt Q13490); assay: cIAP1 degradation in MDA-MB-231 cells; type: cell-based
cIAP1, sequence (Q13490 whole entry): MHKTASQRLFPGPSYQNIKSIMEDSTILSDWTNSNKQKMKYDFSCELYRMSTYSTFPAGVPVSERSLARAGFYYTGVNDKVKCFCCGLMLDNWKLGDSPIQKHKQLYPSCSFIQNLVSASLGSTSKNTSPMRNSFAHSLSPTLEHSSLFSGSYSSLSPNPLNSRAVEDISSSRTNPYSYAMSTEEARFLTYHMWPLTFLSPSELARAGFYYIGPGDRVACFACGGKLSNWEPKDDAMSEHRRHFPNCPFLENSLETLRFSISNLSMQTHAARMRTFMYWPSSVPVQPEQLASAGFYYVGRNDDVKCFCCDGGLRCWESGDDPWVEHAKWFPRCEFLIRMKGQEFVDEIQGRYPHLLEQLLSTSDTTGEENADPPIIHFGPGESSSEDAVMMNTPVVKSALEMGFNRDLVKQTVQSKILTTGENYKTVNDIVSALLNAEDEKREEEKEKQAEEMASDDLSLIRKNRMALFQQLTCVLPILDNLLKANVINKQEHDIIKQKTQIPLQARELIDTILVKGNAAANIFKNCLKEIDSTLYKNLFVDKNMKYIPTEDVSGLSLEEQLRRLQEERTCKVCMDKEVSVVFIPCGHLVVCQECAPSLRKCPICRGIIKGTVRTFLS

MDA-MB-231 cancer cells = assay: Trypan blue cell death assay, MDA-MB-231; type: cell-based, human; conditions: 1 μM for 24 hours
[7] = Pharmacokinetics in MDA-MB-231 tumor tissues of SCID mice; type: in vivo; conditions: for Cmax: SCID, mouse, in vivo
[8] = Toxicity evaluation in mice; type: in vivo; conditions: 200 mg/kg, daily for 5 days a week for 2–3 weeks via oral gavage
[9] = test system: Primary human normal prostate epithelial cells; assay: Trypan blue cell death assay, primary prostate epithelial cells; type: cell-based; conditions: concentrations as high as 10 μM, 48 hours
Pharmacokinetics in dogs = type: in vivo; conditions: beagle, dog, po, 10 mg/kg
XIAP BIR3 protein [10] = target: T1, XIAP BIR3 protein; assay: Cell-free functional assay against XIAP BIR3; type: biochemical; conditions: 1 μM compound, 500 nM XIAP BIR3, MDA-MB-231 cell lysates
Tolerability in dogs = type: in vivo; conditions: IND-enabling studies, data not shown
[11] = test system: caspase-3 and PARP in MDA-MB-231 cancer cells; assay: Western blot of caspase-3 activation and PARP cleavage, MDA-MB-231; type: cell-based, human; conditions: 1.5 μM, in as little as 12 hr
[12] = Pharmacokinetics in plasma of SCID mice bearing MDA-MB-231 tumors; conditions: mouse, in vivo
[13] = 7.5 mg/kg intravenously, 24-h time-point

Compound: CN[C@@H](C)C(=O)N[C@H]1CN(C(=O)CC(C)C)CC[C@H]2CC[C@@H](C(=O)NC(c3ccccc3)c3ccccc3)N2C1=O [compound 2, (5S,8S,10aR)-N-benzhydryl-5-((S)-2-(methylamino)propanamido)-3-(3-methylbutanoyl)-6-oxodeca-hydropyrrolo[1,2-a][1,5]diazocine-8-carboxamide]
- Cmax [1]: ~4 µM
- times higher affinities than the Smac AVPI peptide (XIAP BIR3 protein [2]): 50–100 times
- antitumor activity ([3]; 10 mg/kg oral gavage daily, 5 days a week for 2 weeks): no significant antitumor activity
- toxicity to animals ([3]; oral dosing, MDA-MB-231 xenograft model in mice): minimal toxicity; also recorded: no signs of toxicity
- toxicity (cell death) against normal-like cells [4]: minimal toxicity
- processing of procaspase-8 in tumor tissues ([5]; single oral dose 100 mg/kg, 2-hr and 6-hr time-points): effectively induces processing of procaspase-8
- PARP cleavage in tumor tissues ([5]; single oral dose 100 mg/kg, at 2 hr, maximum at 6 hr, still evident after 16 hr): cleavage of the apoptosis marker, PARP
- cIAP1 degradation in tumor tissues ([5]; single oral dose 100 mg/kg, at the 2-hr time-point, persists for 16 hr): effectively induced cIAP1 degradation
- share of cell lines in which cell growth is effectively inhibited [6]: approximately 15%
- metabolic stability (Metabolic stability): good metabolic stability
- cIAP1 degradation (cIAP1; 100 nM for 15 min): complete degradation
- induction of cIAP1 degradation (cIAP1; at concentrations as low as 10 nM): effectively induces cIAP1 degradation
- cells that underwent cell death (MDA-MB-231 cancer cells): More than 50%
- tumor tissue penetration ([7]; SCID mice bearing MDA-MB-231 tumors): excellent tumor tissue penetration
- Cmax ([7]; iv, 10 mg/kg): 6 µM
- Cmax ([7]; po, 10 mg/kg): 0.5 µM
- Cmax ([7]; po, 30 mg/kg): 3.9 µM
- Cmax ([7]; po, 100 mg/kg): 18.2 µM
- tolerability [8]: well tolerated
- toxicity (cell death) against normal cells [9]: minimal toxicity
- AUC (Pharmacokinetics in dogs; in vivo): 198 µg·h/mL
- Cmax (Pharmacokinetics in dogs; plasma): 17 µM
- antagonism of XIAP BIR3 and restoration of caspase-9 activity (XIAP BIR3 protein [10]): completely antagonizes XIAP and restores the activity of caspase-9
- tolerability in dogs (Tolerability in dogs): well tolerated
- activation of caspase-3 and cleavage of PARP [11]: robust activation of caspase-3 and cleavage of PARP
- Cmax ([12]; iv, 10 mg/kg): 5 µM
- Cmax ([12]; po, 10 mg/kg): 1.5 µM
- Cmax ([12]; po, 30 mg/kg): 2 µM
- Cmax ([12]; po, 100 mg/kg): 9.9 µM

Compound: CC(=O)O[C@@]12CO[C@@H]1C[C@H](O)[C@@]1(C)C(=O)[C@H](O)C3=C(C)[C@@H](OC(=O)[C@H](O)[C@@H](NC(=O)OC(C)(C)C)c4ccccc4)C[C@@](O)([C@@H](OC(=O)c4ccccc4)[C@H]21)C3(C)C.O.O.O [TXT, reference compound]
- antitumor activity ([3]; 7.5 mg/kg intravenously, once a week for 2 weeks): strong antitumor activity
- PARP cleavage in tumor tissues [5, 13]: minimal effect
- cIAP1 degradation in tumor tissues [5, 13]: minimal effect
- processing of procaspase-8 in tumor tissues [5, 13]: induces the processing of procaspase-8
